Experimental data as given in US20250135012A1, “DENDRIMER CONJUGATES OF SMALL MOLECULE BIOLOGICS FOR INTRACELLULAR DELIVERY” (The Johns Hopkins University, priority 2021, published 2025).
Where “and” joins values, the source holds several entries; their conditions need not be identical. Equal values may be shown once. Non-standard residues stand in square brackets, D forms with d. Residues, ends and D or L forms follow the SMILES beside them. Cya = N[C@@H](CS(=O)(=O)O)C(=O)O

What was measured:
ERK1/2 = assay: Western blot, ERK1/2 phosphorylation in VEGF stimulated HUVEC; assay type: cell-based, human; conditions: 1 mM on a peptide basis, vs VEGF stimulated controls
Protocol: Cells were treated with D-ALG1001 and ALG-1001 for 24 h before activation with VEGF for 5 minutes. […] Cells were lysed with TRIZOL® and processed as previously described for qPCR analysis.
Concentration of protein was determined with the BCA protein assay kit (Thermo Scientific, Rockford, IL). Equal amount of protein was denatured and resolved on 4-15% TGX gels (Bio-Rad, Hercules, CA). Gels were transferred to nitrocellulose membranes, blocked with 3% Bovine Serum Albumin (“BSA”) at RT for 1 h, and probed for GAPDH, FAK, pFAK, MAPK, and pMAPK at 4° C. overnight. Membranes were washed thrice before incubation with HRP-conjugated secondary antibodies followed by incubation with chemiluminescent substrate for visualization.
To elucidate the mechanism through which D-ALG and ALG-1001 influence angiogenic function, cells were pre-treated with D-ALG and ALG-1001 for 24 h. The cells were then stimulated with a high dose of exogenous VEGF for 5 min after which the samples were collected for western blotting. The samples were probed for expression of total FAK, phospho-FAK (Y397), ERK1/2, phospho-ERK1/2, and Cyclophilin B (CycB) with CycB acting as the internal control.

IL1β = IL1β expression in LPS stimulated RAW264.7 cells (qPCR); assay type: cell-based, murine; conditions: 24 h pretreatment, LPS 3 h
Protocol: (§1) RAW264.7 cells were seeded at a density of 1×10^5 cells per well in 12-well plates 48 h before treatment. Cells were incubated with D-ALG1001 and ALG-1001 for 24 h, the treatment media was aspirated then LPS at a concentration of 10,000 Endotoxin Units/mL was added to stimulate inflammatory response. Samples were collected 3 h after LPS stimulation for qPCR analysis.
(§2) 100 μL of chloroform was added to the Trizol suspension and the aqueous phase was separated with a centrifuge at 10K RPM at 4° C. for 15 minutes. 400 μL of 2-propanol was added to the aqueous solution and spun again to pellet the RNA. The RNA was washed with 70% ethanol solution, pelleted again, and re-suspended in DEPC (ultrapure treated to inactivated enzymes) water.
(§3) To convert RNA to complementary DNA, 2 μg of RNA was converted using a High-Capacity cDNA Reverse Transcription Kit (Applied Biosystems, Foster City, CA). Samples were analyzed using STEPONE PLUS® real-time PCR system (Applied Biosystems) with SYBR Green reagent (ThermoFisher Scientific). Relative expression was quantified with ΔΔCt calculations normalized to controls. Primers for GAPDH was obtained from Bio-Rad Laboratories (Hercules, CA). Primers were purchased from Integrated DNA Technologies (Coralville, IA). Primers for TNFα were: […]

TNFα [1] = assay: TNFα expression in LPS stimulated RAW264.7 cells (qPCR); assay type: cell-based, murine; conditions: only at the highest dose
Protocol: as §1, §2, §3

[2] = tested on: choroidal neovascularization (CNV); assay: Laser CNV model, CNV area; assay type: in vivo, Brown Norway rats
Protocol: Animals were anesthetized through intraperitoneal injections of a ketamine/xylazine cocktail (ketamine 50 mg/kg and xylazine 10 mg/kg). Pupils are dilated with topical 2.5% Phenylephrine Hydrochloride solution followed by 0.5% Tetracaine Hydrochloride solution. To induce CNV formation, four equally spaced lesions will be created in the Bruch's membrane with a built-in laser system on the Micron III SLO. Laser power was set to […] with duration of 70 ms. Gonio ophthalmic solution was applied post-operatively to prevent eyes from drying and forming cataracts.
On the day of CNV induction (Day 0), D-ALG1001 and ALG1001 was administered intraperitoneally at a dose of 150 μg on a peptide basis. […]
After fixation, the posterior segment of the eye was dissected out and the retina separated from the choroid. […] Samples for CNV quantification were imaged with an Axiovert phase contrast microscope. […]
A Micron III SLO scope and laser attachment was used to induce CNV formation in mice. […] Whether dendrimer conjugation impeded the peptide from attenuating CNV was assessed by first injecting ALG-1001 and D-ALG intravitreally after CNV induction. The eyes were then collected on day 7 and CNV area quantified.
The protection and targeting of D-ALG allowed for less invasive administration routes. […] Choroidal flatmount of eyes at day 7 and 14 were imaged and the CNV area was calculated using ImageJ.

TNFα [3] = assay: Choroid TNFα qPCR; assay type: in vivo, Brown Norway rats; conditions: 7 and 14 days
Protocol: In brief, 500 μL of T-Per supplemented with PHOSSTOP® and proteinase inhibitor cocktail was added to tubes containing dissected choroid. A scoop of 1.6 mm steel homogenization beads was added to each sample and then placed in […]® LT (Qiagen) at an oscillation frequency of 50/s for 15 minutes. For qPCR, 200 μL of TRIZOL® was added to tubes containing choroid and a scoop of 1.6 mm steel homogenization beads was added. The samples were placed in […]® LT at an oscillation frequency of 50/s for 15 minutes.
as §2
as §3, with “IA).” for “IA). Primers for TNFα were:”

proteinase K = proteinase K (Parengyodontium album, UniProt P06873); assay: in vitro; conditions: proteinase K (isolated protease)
proteinase K, sequence (P06873 106-384): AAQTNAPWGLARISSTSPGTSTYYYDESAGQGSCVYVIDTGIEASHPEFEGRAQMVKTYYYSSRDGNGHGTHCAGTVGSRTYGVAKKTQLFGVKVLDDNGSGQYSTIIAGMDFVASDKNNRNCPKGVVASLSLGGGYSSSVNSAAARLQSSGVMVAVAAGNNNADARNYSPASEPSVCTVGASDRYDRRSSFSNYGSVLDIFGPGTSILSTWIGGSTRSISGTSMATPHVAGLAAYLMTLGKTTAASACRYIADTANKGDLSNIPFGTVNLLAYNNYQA
Protocol: Proteinase K stock solution was purchased from ThermoFisher and used as is. […] The mixture was incubated at 37° C. and at set time points, 100 μL of the mixture was removed and analyzed through HPLC.

C[C@@H](O)[C@H](NC(=O)[C@H](CS(=O)(=O)O)NC(=O)CNC(=O)[C@H](CCCNC(=N)N)NC(=O)CN)C(=O)N1CCC[C@H]1C(=O)O [ALG-1001] (H-GRG[Cya]TP-OH; N-terminus and C-terminus assumed)
reduction of phospho-ERK1/2 (ERK1/2): ~60% | impact on IL1β production (IL1β): no impact on IL1β production | reduction of TNFα expression (TNFα [1]): 20% | reduction of CNV formation ([2]; day 7, intraperitoneal 150 μg peptide basis every 4 days): ~60% and 40% | formation of CNV ([2]; intravitreal, day 7): significantly inhibited | TNFα level (qPCR) (TNFα [3]): lower TNFα levels across both time points | metabolised at 0.5 h, 2 mg/mL (proteinase K): ~50% | metabolised at […], 2 mg/mL (proteinase K): ~90%
